Data taken from patent publication US6545010B2, “Composition comprising camptothecin or a camptothecin derivative and a platin derivative for the treatment of cancer” (priority 2000, dated 2003).

Tests used:
P388/CPT = assay: Chemosensitivity of camptothecin-resistant i.p. P388/CPT leukemia, increase in life span; format: in vivo, mice; settings: for %ILS: P388/CPT, highest non-toxic dose
Protocol: (§1) Cross-resistance was measured in murine leukemia cell lines.
(§2) ILS=100×[(median day of death (MDD) of treated mice)−(MDD control mice)]÷(MDD control mice)
(§3) Table III tabulates the results from this study.

[1] = test system: Glasgow osteosarcoma (GOS); assay: CPT-11 p.o. with oxaliplatin i.v., GOS sc; format: in vivo, mice; settings: days 4-8
Protocol: (§4) The effectiveness of irinotecan combination chemotherapy methods were tested in a dose response study in a murine tumor model. Three arms were evaluated for tolerance and efficacy. Tolerance was measured by mortality, body weight loss at nadir, host recovery time, and combination toxicity index. Efficacy end points for solid tumor models were tumor growth delay (T/C), log10 cell kill (LCK, defined above), tumor regressions (i.e., complete remission (CR), or partial remission (PR)). For non-solid tumors, such as leukemia, efficacy was measured as the increase in life span (ILS).

[2] = test system: Glasgow osteosarcoma (GOS); assay: CPT-11 i.v. with oxaliplatin i.v., GOS sc; format: in vivo, mice
Protocol: as §4

P388 = assay: Chemosensitivity of P388 leukemia, increase in life span; format: in vivo, mice; settings: P388, agent i.v., highest non-toxic dose
Protocol: as §1, §2, §3

Colon Adenocarcinoma C51 = assay: CPT-11, cisplatin and combination, three-arm study in mice bearing colon adenocarcinoma C51; settings: for LCK / HNTD Dose: C51 sc; for T/C: tumor growth delay
Protocol: This efficacy may be quantified, for example, by the log10 cell kill, which is determined by the following formula: […]
An agent is considered to be active if log10 cell kill is greater than or equal to 0.7. An agent is considered to be very active if the log10 cell kill is greater than 2.8.
In the first arm, four dose levels of CPT-11 were given orally on days four through seven, twice daily. […] This third arm illustrated an example of semi-simultaneous administration.
The LD10 for the single agent was obtained by plotting the toxicity of that agent and the dosage in mg/kg as a log probit graph. Subsequently, the CTI LD10 was obtained by plotting as a log probit graph the observed lethality and the corresponding CTI calculated as the sum of the fraction of the LD10 of each single agent.

[3] = Tolerance and maximum tolerated dose of oral vs i.v. irinotecan in tumor bearing mice; format: in vivo; settings: all five tumor models, three mice strains
Protocol: as §4

[4] = Cisplatin i.v. 1.9 mg/kg/adm, days 4, 7
[5] = Cisplatin i.v. 3.1 mg/kg/adm, days 4, 7
[6] = CPT-11 p.o. 31.5 mg/kg/adm, days 4-7 twice/day
[7] = CPT-11 p.o. 50.8 mg/kg/adm, days 4-7 twice/day

## O=C1[O][Pt]2([NH][C@@H]3CCCC[C@H]3[NH]2)[O]C1=O [Oxaliplatin, oxaliplatin]
P388/CPT; agent i.v.
  %ILS: 86%
  Comment (sensitivity of P388/CPT): sensitive
[1]; oxaliplatin i.v. alone at HNTD
  LCK: 2.0
[1]; oxaliplatin i.v. alone
  HNTD Dose: 16.0 mg/kg
[2]; oxaliplatin i.v. alone at HNTD, days 3, 5, 7
  LCK: 2.3
[2]; oxaliplatin i.v. alone, days 3, 5, 7
  HNTD Dose: 10.2 mg/kg
P388
  %ILS: 0%

## N.N.[Cl][Pt][Cl] [Cisplatin, cis-diaminedichloroplatinum]
P388/CPT; agent i.v.
  %ILS: 153%
  Comment (sensitivity of P388/CPT): sensitive
Colon Adenocarcinoma C51; cisplatin i.v. alone at HNTD, days 4, 7
  LCK: 3.3
Colon Adenocarcinoma C51; cisplatin i.v. alone, days 4, 7
  HNTD Dose: 6.2 mg/kg
Colon Adenocarcinoma C51; [4]
  Log10 cell kill: 1.3
  Time for Median tumor to reach 1000 mg: 30.8 days
  T/C: 11.3 days
Colon Adenocarcinoma C51; [5]
  Log10 cell kill: 3.3
  Time for Median tumor to reach 1000 mg: 48.1 days
  T/C: 28.6 days
P388
  %ILS: 73%

## CC[C@@]1(O)C(=O)OCc2c1cc1n(c2=O)Cc2cc3ccccc3nc2-1 [CPT, camptothecin]
P388/CPT; agent s.c.
  Comment (sensitivity of P388/CPT): resistant

## CCc1c2c(nc3ccc(OC(=O)N4CCC(N5CCCCC5)CC4)cc13)-c1cc3c(c(=O)n1C2)COC(=O)[C@]3(O)CC [CPT-11, irinotecan]
[3]
  efficacy in tumor bearing mice, oral vs i.v. administration: similar
P388/CPT; agent i.v.
  Comment (sensitivity of P388/CPT): resistant
[2]; CPT-11 i.v. alone, days 3, 5, 7 twice daily
  HNTD Dose: 349.8 mg/kg
Colon Adenocarcinoma C51; CPT-11 p.o. alone at HNTD, days 4-7, twice daily
  LCK: 1.1
Colon Adenocarcinoma C51; CPT-11 p.o. alone, days 4-7, twice daily
  HNTD Dose: 406 mg/kg
Colon Adenocarcinoma C51; [6]
  Comments: Marginal Activity
  Log10 cell kill: 0.7
  Time for Median tumor to reach 1000 mg: 25.5 days
  T/C: 6.0 days
Colon Adenocarcinoma C51; [7]
  Time for Median tumor to reach 1000 mg: 29.4 days
  T/C: 9.9 days
